Laboratory results taken from patent publication US8815948B2, “High volume and alternative methods of delivering homeopathic remedies” (Dovetail Technologies, Inc., priority 2004, dated 2014).

System: cat with Gran Mal seizures
Experiment: Taurox SB added to food of a cat with Gran Mal seizures
Assay type: in vivo
Details: cat Misty, before Taurox SB
Excerpt: The homeopathic remedy may be included in food. For example, Misty, a cat who had been accepted by a rescue shelter, suffered with severe, potentially life-threatening Gran Mal seizures about three times a day and almost every other day. […] Overall, she averaged a few a month while being treated.
The homeopathic remedy may also be included in food. […] This invention applies to all foods from treats treated with the homeopathic on site, to the bulk supplied food while making it, to massive watering systems used to water livestock or irrigate fields. It applies to all forms of life including human, animal and plant.

Bromide salts
benefit on seizures of earlier medication: without significant benefits
